Results as given in PMC10817945, “Design of a novel analogue peptide with potent antibiofilm activities against Staphylococcus aureus based upon a sapecin B-derived peptide” (Scientific Reports, 2024).
Converted amounts (≈) assume the structure as drawn. Read-outs that look alike come from different tables or passages of the source. Non-standard residues stand in square brackets, D forms with d. Residues, ends and D or L forms follow the SMILES beside them.

Assays:
S. aureus isolates [1] = format: cell-based, Staphylococcus aureus
Description: (§1) Minimum inhibitory concentrations (MIC) of KLK, mKLK, and vancomycin were determined using microdilution broth assay according to clinical and laboratory standards institute (CLSI) guidelines with some modifications. Briefly, overnight cultures were diluted in Muller-Hinton broth (MHB; Merck, Germany) to achieve a final density of 5 × 10^5 CFU/ml. A volume of 100 μl of bacterial suspension was added to wells of sterile 96-well plates containing 100 μl of two-fold peptide dilutions, ranging from 0.25 to 256 µg/ml. Vancomycin was used as a positive control in this assay. […] MBC was determined by removing samples from wells with no visible growth, serially diluting, and plating on Mueller Hinton (MH) agar plates for CFU counting.

24-h S. aureus biofilms = assay: Biofilm dispersal activity (crystal violet); format: cell-based, Staphylococcus aureus
Description: To investigate the dispersal activity of KLK and mKLK peptide, the 24-h S. aureus biofilms were prepared in TSB medium in the 96-well plates. Then, the final concentrations of 1×, 2×, and 4 × MIC were prepared for each peptide in the wells. After incubation at 37 °C for 12 h, plates were washed with PBS three times to discard unattached bacteria. Subsequently, plates were stained with 250 μl of 0.5% crystal violet for 20 min at room temperature. Then, the wells were washed and 250 μl 33% acetic acid was added to them. Finally, the absorbance was measured at 570 nm using a microplate reader.

Human red blood cells = assay: in vitro
Description: (§2) The assay was performed using fresh human blood samples containing citrate phosphate dextrose anticoagulant collected from a blood bank (Iranian Blood Transfusion Organization). Human red blood cells (RBC) were centrifuged at 1700×g for 5 min; then the supernatant was removed and the erythrocyte pellet was diluted 1:100 in PBS to obtain a 1% erythrocyte suspension. […] Then, 50 μl of the 1% erythrocyte suspension and 50 μl of the peptides were mixed and added to wells of a 96-well polypropylene conical bottom microplate and incubated at 37 °C for 1 h. Following centrifugation of the samples at 1700×g for 5 min, 50 μl of the supernatant was transferred to wells of a 96-well flat-bottom plate for the absorbance measurement at 405 nm in a microplate reader. Identical volumes of Triton X-100 (1%) and PBS were used as positive and negative controls, respectively. The selectivity indexes (SI) were also determined as a toxicity indicator.

in vitro = settings: human
Description: as §2

[2] = tested on: one MRSA and reference strain (ATCC25923); assay: Time-kill kinetics assay
Description: The peptide-free control was included for each strain. Following incubation at 37 °C for 0, 0.25, 0.5, 1, 2, 4, 5, and 24 h, each sample was serially diluted, plated onto Mueller–Hinton (MH) agar (Merck, Germany) plates and incubated at 37 °C. The viable plate count method was performed after incubation for 24 h and the counts were expressed as Log CFU/ml[44].

S. aureus isolates [3] = assay: microbe, parasite or virus in culture; format: cell-based, Staphylococcus aureus
Description: as §1

S. aureus strains = format: cell-based, Staphylococcus aureus; settings: for inhibition of biofilm formation: strains, 24 h
Description: To investigate the inhibitory effect of KLK and mKLK peptides on bacterial surface attachment and biofilm formation, the bacterial suspension in TSB with a concentration of 10^7 CFU/ml was prepared from overnight culture. An aliquot of 100 μl of the bacterial suspension was added to wells of 96-well plates containing 100 μl of the peptides solution with concentrations of 1×, 1/2× and 1/4× MIC, resulting in the final peptides concentrations of 1/2×, 1/4× and 1/8× MIC. To investigate the inhibitory effect of the peptides on surface attachment the incubation was performed at 37 °C for 2 h and to evaluate their inhibitory activity on biofilm formation the incubation was performed at 37 °C for 24 h. The wells containing only TSB medium were used as negative controls. After incubation, the contents of the wells were removed and washed three times with PBS and the wells were stained with 200 μl of 0.1% crystal violet for 20 min. The plates were washed again and excess dye was removed. A volume of 200 μl of 95% ethanol was added to each well for 20 min and absorbance was measured at 570 nm by a microplate reader.

CC(C)C[C@@H](NC(=O)[C@H](N)Cc1c[nH]c2ccccc12)C(=O)N[C@H](Cc1c[nH]c2ccccc12)C(=O)N[C@H](C)C(=O)N[C@H](CC(C)C)C(=O)N[C@H](CC(C)C)C(=O)N[C@H](CCCCN)C(=O)N[C@H](CC(C)C)C(=O)N[C@H](CC(C)C)C(=O)N[C@H](CCCCN)C(=O)N[C@H](CC(C)C)C(=O)N[C@H](CCCCN)C(N)=O [mKLK] (H-[dW][dL][dW][dA][dL][dL][dK][dL][dL][dK][dL][dK]-NH2; N-terminus assumed)
MBC (S. aureus isolates [1]; ATCC25923): 4 mg/L (≈ 2.62 µM) | MBC (S. aureus isolates [1]; MRSA-1): 8 mg/L (≈ 5.25 µM) | MBC (S. aureus isolates [1]; MRSA-2): 8 mg/L (≈ 5.25 µM) | MBC (S. aureus isolates [1]; MRSA-3): 8 mg/L (≈ 5.25 µM) | MBC (S. aureus isolates [1]; MSSA-1): 4 mg/L (≈ 2.62 µM) | MBC (S. aureus isolates [1]; MSSA-2): 4 mg/L (≈ 2.62 µM) | crystal violet absorbance at 570 nm, dispersal activity, Mean±SD (24-h S. aureus biofilms; ATCC25923, 1MIC, control 2.79±0.03): 1.277±0.01 | crystal violet absorbance at 570 nm, dispersal activity, Mean±SD (24-h S. aureus biofilms; ATCC25923, 2MIC, control 2.79±0.03): 0.790±0.15 | crystal violet absorbance at 570 nm, dispersal activity, Mean±SD (24-h S. aureus biofilms; ATCC25923, 4MIC, control 2.79±0.03): 0.35±0.01 | crystal violet absorbance at 570 nm, dispersal activity, Mean±SD (24-h S. aureus biofilms; MRSA-1, 1MIC, control 1.903±0.003): 1.271±0.02 | crystal violet absorbance at 570 nm, dispersal activity, Mean±SD (24-h S. aureus biofilms; MRSA-1, 2MIC, control 1.903±0.003): 0.926±0.07 | crystal violet absorbance at 570 nm, dispersal activity, Mean±SD (24-h S. aureus biofilms; MRSA-1, 4MIC, control 1.903±0.003): 0.587±0.28 | crystal violet absorbance at 570 nm, dispersal activity, Mean±SD (24-h S. aureus biofilms; MRSA-2, 1MIC, control 2.014±0.01): 1.349±0.04 | crystal violet absorbance at 570 nm, dispersal activity, Mean±SD (24-h S. aureus biofilms; MRSA-2, 2MIC, control 2.014±0.01): 0.929±0.09 | crystal violet absorbance at 570 nm, dispersal activity, Mean±SD (24-h S. aureus biofilms; MRSA-2, 4MIC, control 2.014±0.01): 0.579±0.08 | crystal violet absorbance at 570 nm, dispersal activity, Mean±SD (24-h S. aureus biofilms; MRSA-3, 1MIC, control 1.255±0.29): 0.637±0.16 | crystal violet absorbance at 570 nm, dispersal activity, Mean±SD (24-h S. aureus biofilms; MRSA-3, 2MIC, control 1.255±0.29): 0.5±0.11 | crystal violet absorbance at 570 nm, dispersal activity, Mean±SD (24-h S. aureus biofilms; MRSA-3, 4MIC, control 1.255±0.29): 0.296±0.009 | crystal violet absorbance at 570 nm, dispersal activity, Mean±SD (24-h S. aureus biofilms; MSSA-1, 1MIC, control 1.787±0.1): 1.063±0.09 | crystal violet absorbance at 570 nm, dispersal activity, Mean±SD (24-h S. aureus biofilms; MSSA-1, 2MIC, control 1.787±0.1): 0.675±0.02 | crystal violet absorbance at 570 nm, dispersal activity, Mean±SD (24-h S. aureus biofilms; MSSA-1, 4MIC, control 1.787±0.1): 0.378±0.02 | crystal violet absorbance at 570 nm, dispersal activity, Mean±SD (24-h S. aureus biofilms; MSSA-2, 1MIC, control 2.116±0.006): 0.992±0.01 | crystal violet absorbance at 570 nm, dispersal activity, Mean±SD (24-h S. aureus biofilms; MSSA-2, 2MIC, control 2.116±0.006): 0.637±0.20 | crystal violet absorbance at 570 nm, dispersal activity, Mean±SD (24-h S. aureus biofilms; MSSA-2, 4MIC, control 2.116±0.006): 0.207±0.01 | HC50 (Human red blood cells): 118.6 µg/mL | HC50 (Human red blood cells; red cells of human, 1 h): 77.8 µM | hemolysis at 1 h, 1.56 µM (in vitro): 0% | hemolysis at 1 h, 3.12 µM (in vitro): 0.3% | hemolysis at 1 h, 6.25 µM (in vitro): 1.8% | hemolysis at 1 h, 12.5 µM (in vitro): 9.3% | hemolysis at 1 h, 25 µM (in vitro): 15.4% | hemolysis at 1 h, 50 µM (in vitro): 36.2% | hemolysis at 1 h, 75 µM (in vitro): 48.2% | hemolysis at 1 h, 100 µM (in vitro): 58.2% | hemolysis at 1 h, 150 µM (in vitro): 62.4% | hemolysis at 1 h, 200 µM (in vitro): 67.1% | time after which no regrowth was observed ([2]; ATCC 25923, 1 × MIC (4 μg/ml)): 30 min | reduction in viable cell count ([2]; ATCC 25923, 1 × MIC, during 15 min): ~1 log | time after which no regrowth was observed ([2]; ATCC 25923, 2 × MIC (8 μg/ml)): 15 min | time after which no regrowth was observed ([2]; MRSA, 1 × MIC): 240 min | reduction in viable cell count ([2]; MRSA, 1 × MIC (8 μg/ml), within 2 h): 2 log | MIC (S. aureus isolates [3]; ATCC25923): 4 mg/L (≈ 2.62 µM) | MIC (S. aureus isolates [3]; MRSA clinical isolates, read-out: MIC): 8 mg/L (≈ 5.25 µM) | MIC (S. aureus isolates [3]; MRSA-1): 8 mg/L (≈ 5.25 µM) | MIC (S. aureus isolates [3]; MRSA-2): 8 mg/L (≈ 5.25 µM) | MIC (S. aureus isolates [3]; MRSA-3): 8 mg/L (≈ 5.25 µM) | MIC (S. aureus isolates [3]; MSSA-1): 4 mg/L (≈ 2.62 µM) | MIC (S. aureus isolates [3]; MSSA-2): 4 mg/L (≈ 2.62 µM) | MIC (S. aureus isolates [3]; three MRSA isolates): 8 mg/L (≈ 5.25 µM) | MIC (S. aureus isolates [3]; two MSSA isolates): 4 mg/L (≈ 2.62 µM) | crystal violet absorbance at 570 nm, biofilm formation, Mean±SD (S. aureus strains; ATCC25923, 1/2MIC, control 2.302±0.006): 0.207±0.02 | crystal violet absorbance at 570 nm, biofilm formation, Mean±SD (S. aureus strains; ATCC25923, 1/4MIC, control 2.302±0.006): 0.257±0.05 | crystal violet absorbance at 570 nm, biofilm formation, Mean±SD (S. aureus strains; ATCC25923, 1/8MIC, control 2.302±0.006): 0.678±0.01 | crystal violet absorbance at 570 nm, biofilm formation, Mean±SD (S. aureus strains; MRSA-1, 1/2MIC, control 2.115±0.01): 0.489±0.007 | crystal violet absorbance at 570 nm, biofilm formation, Mean±SD (S. aureus strains; MRSA-1, 1/4MIC, control 2.115±0.01): 0.572±0.01 | crystal violet absorbance at 570 nm, biofilm formation, Mean±SD (S. aureus strains; MRSA-1, 1/8MIC, control 2.115±0.01): 0.936±0.07 | crystal violet absorbance at 570 nm, biofilm formation, Mean±SD (S. aureus strains; MRSA-2, 1/2MIC, control 2.354±0.04): 0.444±0.008 | crystal violet absorbance at 570 nm, biofilm formation, Mean±SD (S. aureus strains; MRSA-2, 1/4MIC, control 2.354±0.04): 0.624±0.03 | crystal violet absorbance at 570 nm, biofilm formation, Mean±SD (S. aureus strains; MRSA-2, 1/8MIC, control 2.354±0.04): 0.923±0.07 | crystal violet absorbance at 570 nm, biofilm formation, Mean±SD (S. aureus strains; MRSA-3, 1/2MIC, control 1.541±0.02): 1.405±0.01 | crystal violet absorbance at 570 nm, biofilm formation, Mean±SD (S. aureus strains; MRSA-3, 1/4MIC, control 1.541±0.02): 0.322±0.02 | crystal violet absorbance at 570 nm, biofilm formation, Mean±SD (S. aureus strains; MRSA-3, 1/8MIC, control 1.541±0.02): 0.519±0.006 | crystal violet absorbance at 570 nm, biofilm formation, Mean±SD (S. aureus strains; MSSA-1, 1/2MIC, control 2.190±0.01): 0.236±0.03 | crystal violet absorbance at 570 nm, biofilm formation, Mean±SD (S. aureus strains; MSSA-1, 1/4MIC, control 2.190±0.01): 0.407±0.007 | crystal violet absorbance at 570 nm, biofilm formation, Mean±SD (S. aureus strains; MSSA-1, 1/8MIC, control 2.190±0.01): 0.622±0.02 | crystal violet absorbance at 570 nm, biofilm formation, Mean±SD (S. aureus strains; MSSA-2, 1/2MIC, control 1.802±0.02): 0.183±0.01 | crystal violet absorbance at 570 nm, biofilm formation, Mean±SD (S. aureus strains; MSSA-2, 1/4MIC, control 1.802±0.02): 0.225±0.01 | crystal violet absorbance at 570 nm, biofilm formation, Mean±SD (S. aureus strains; MSSA-2, 1/8MIC, control 1.802±0.02): 0.558±0.05 | inhibition of biofilm formation (S. aureus strains; 2): 80-91% | inhibition of biofilm formation (S. aureus strains; 4): 76-89% | inhibition of biofilm formation (S. aureus strains; 8): 63-73%
